This is an account of results in PMC3199943, “Screening the MayBridge Rule of 3 Fragment Library for Compounds That Interact with the Trypanosoma brucei myo-Inositol-3-Phosphate Synthase and/or Show Trypanocidal Activity” (Molecular Biology International, 2011).

The subject of assay [1] is HeLa cells. The assay is described as follows: cells. To be noted: for viability at 500 µM / CC50: Homo sapiens, HeLa; for viability at 500 µM: 65 h, read-out: HeLa Cells Alamar Blue; for HeLa Cells Alamar Blue: Supplementary Table 1, compound 0.5 mM, percentage of controls, mean ± SD (n=3) or SE (n=2); for CC50: read-out: HeLa ED50. In a few lines: (§1)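 Viability by Alamar Blue (5 h) after ~65 h drug treatment; seeding density 2 × 10^4 cells/well in DMEM supplemented with 10% FCS and 2 mM L-Glutamine.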

The test system of assay [2] is A549 cells. The assay can be described thus: Cytotoxicity against A549 cells, Alamar Blue. The assay is classed as cell-based. To be noted: Supplementary Table 1, compound 0.5 mM, percentage of controls (n=1); for viability at 500 µM: Homo sapiens, A549, 65 h. In a few lines:
as §1
(In general: Resazurin is reduced to fluorescent resorufin, in cell work by metabolically active cells.)

Structures are written as SMILES. Structures can show the parent of a compound that is named as a salt.

For `N#Cc1ccccc1-n1cccc1` [compound 336, 2‐(1H‐pyrrol‐1‐yl)benzonitrile], the figures for the viability at 500 µM in assay [1] and in assay [2] were 68.5 ± 16.3% and 134%, respectively.
For `N#Cc1cccc(-c2ccco2)c1` [compound 338, 3‐(2‐furyl)benzonitrile] the same measures were 18.5 ± 15.2% and 57.8%.
`Oc1nc2ccc(Cl)cc2o1` [compound 342, 6‐chloro‐1,3‐benzoxazol‐2‐ol]: the viability at 500 µM turned out to be 94.3 ± 6.5% in assay [1] and 73.9% in assay [2].
Consider `N#Cc1ccc(-c2ccco2)nc1` [compound 344, 6‐(2‐furyl)nicotinonitrile], for which the viability at 500 µM in assay [1] was found to be 48.9 ± 5%; in assay [2], 104%.
As for `O=C(O)C1CC2CC1CCC2O` (centres unmarked) [compound 345, 2‐hydroxybicyclo[3.2.1]octane‐6‐carboxylic acid], in assay [1], the “HeLa Cells Alamar Blue” value is reported as 87.4 ± 13 percentage of controls. Besides, in assay [2], the “A549 Cells Alamar Blue” value is recorded as 127 percentage of controls.
As to `Nc1cccc(-c2cccnc2)c1` [compound 346, 3‐pyridin‐3‐ylaniline], the results for the viability at 500 µM in assay [1] and in assay [2] were 73.9 ± 6.1% and 98.5%, respectively.
For `Nc1ccc(-c2cccnc2)cc1` [compound 347, 4‐pyridin‐3‐ylaniline] the same measures were 79.3 ± 2.8% and 113%.
`Nc1ccccc1-c1cccnc1` [compound 348, 2‐pyridin‐3‐ylaniline]: the viability at 500 µM in assay [1] stood at 18.2 ± 10%; in assay [2], 85.3%. Further, the CC50 in assay [1] came out at 21.8 ± 1.8 µM.
Take `Cc1ccc(C(=O)O)cc1Cl` [compound 351, 3‐chloro‐4‐methylbenzoic acid]: the viability at 500 µM in assay [1] came to 88.2 ± 17.9%; in assay [2], 112%.
The corresponding values for `COC(=O)c1ccccc1Cl` [compound 352, methyl 2‐chlorobenzoate] are 95.8 ± 19% and 76.4%.
Take `COC(=O)c1scc(C)c1N` [compound 354, methyl 3‐amino‐4‐methylthiophene‐2‐carboxylate]: in assay [1], the “HeLa Cells Alamar Blue” value was 72.8 ± 8.6 percentage of controls. The “A549 Cells Alamar Blue” value in assay [2] is 32.3 percentage of controls.
`Cc1ccccc1S(N)(=O)=O` [compound 355, 2‐methylbenzene‐1‐sulfonamide]: the viability at 500 µM is 89.1 ± 16.6% in assay [1] and 87.9% in assay [2].
The corresponding values for `CCCCCSc1nnc[nH]1` [compound 357, 3‐(pentylthio)‐4H‐1,2,4‐triazole] are 64.5 ± 8.6% and 45.3%.
For `N#Cc1cnccc1C(F)(F)F` [compound 358, 4‐(trifluoromethyl)nicotinonitrile] the same measures were 103 ± 1.7% and 129%.
Regarding `OCc1scc2c1OCCO2` [compound 361, 2,3‐dihydrothieno[3,4‐b][1,4]dioxin‐5‐ylmethanol], in assay [1], the “HeLa Cells Alamar Blue” value was 68.5 ± 12.9 percentage of controls. Also, the “A549 Cells Alamar Blue” value in assay [2] was 93.7 percentage of controls.
As to `NCc1ccccc1-n1cccc1` [compound 363, [2‐(1H‐pyrrol‐1‐yl)phenyl]methylamine], the viability at 500 µM in assay [1] stood at 42.6 ± 11.7%; in assay [2], 45.6%.
As to `NCc1cccc(-n2cccc2)c1` [compound 364, 3‐(1H‐pyrrol‐1‐yl)benzylamine], in assay [1], the viability at 500 µM was found to be 29.5 ± 12.9% and the CC50 is 40.4 ± 1.8 µM. Moreover, in assay [2], the viability at 500 µM was 56.9%.
The corresponding values for `NCc1ccc(-n2cccc2)cc1` [compound 365, 4‐(1H‐pyrrol‐1‐yl)benzylamine] are 50.9 ± 11%, 71.8 ± 3.7 µM and 94.4%.
With `CNCc1ccc2ncccc2c1` [compound 366, N‐methyl‐N‐(quinolin‐6‐ylmethyl)amine], the viability at 500 µM worked out at 64.6 ± 11.4% in assay [1] and 74.6% in assay [2].
The corresponding values for `CC(=O)c1ccc(F)c(Cl)c1` [compound 367, 1‐(3‐chloro‐4‐fluorophenyl)ethan‐1‐one] are 98.7 ± 6.5% and 58.8%.
The corresponding values for `Nc1ccc(Cn2ccnc2)cc1` [compound 375, 4‐(1H‐imidazol‐1‐ylmethyl)aniline] are 88 ± 18.8% and 90.7%.
Regarding `Cn1nc(-c2ccccc2)cc1N` [compound 376, 1‐methyl‐3‐phenyl‐1H‐pyrazol‐5‐amine], the viability at 500 µM was 82.6 ± 4.6% in assay [1] and 64.7% in assay [2].
The corresponding values for `CSc1ccc(Cl)cc1N` [compound 382, 5‐chloro‐2‐(methylthio)aniline] are 110 ± 13.3% and 60.7%.
`Cc1onc(-c2ccccc2)c1N` [compound 384, 5‐methyl‐3‐phenyl‐4‐isoxazolamine]: the figures for the viability at 500 µM in assay [1] and in assay [2] were 80.8 ± 13.4% and 75.5%, respectively.
The corresponding values for `OCc1ccc(-n2cccn2)cc1` [compound 385, [4‐(1H‐pyrazol‐1‐yl)phenyl]methanol] are 83.4 ± 12.4% and 118%.
On to `OCc1ccc(-n2ccnc2)cc1` [compound 386, [4‐(1H‐imidazol‐1‐yl)phenyl]methanol], for which the viability at 500 µM in assay [1] was 103 ± 15.3%; in assay [2], 101%.
The corresponding values for `C#Cc1ccc(OCCCC)cc1` [compound 388, 1‐butoxy‐4‐eth‐1‐ynylbenzene] are 107 ± 8% and 114%.
The corresponding values for `OCc1ncoc1-c1ccccc1` [compound 397, (5‐phenyl‐1,3‐oxazol‐4‐yl)methanol] are 18.2 ± 7.9% and 56.4%.
For `Cn1ccc2ccc(C(=O)O)cc21` [compound 398, 1‐methyl‐1H‐indole‐6‐carboxylic acid] the same measures were 109 ± 10.3% and 101%.
For `CNCc1nn(C)c2ccccc12` [compound 401, N‐methyl‐N‐[(1‐methyl‐1H‐indazol‐3‐yl)methyl]amine], the “HeLa Cells Alamar Blue” value in assay [1] is recorded as 92.5 ± 7.4 percentage of controls. Moreover, the “A549 Cells Alamar Blue” value in assay [2] is recorded as 91.7 percentage of controls.
Turning to `NCc1cc(Cl)cc(Cl)c1` [compound 405, 3,5‐dichlorobenzylamine], the values for the viability at 500 µM in assay [1] and in assay [2] were 77.7 ± 13.9% and 84.1%, respectively.
For `OCc1ccccc1C(F)(F)F` [compound 407, [2‐(trifluoromethyl)phenyl]methanol] the same measures were 104 ± 13.9% and 90.2%.
For `Nc1ccc(N2CCCCC2)cc1` [compound 413, 4‐piperidinoaniline] the same measures were 11.6 ± 5.1% and 53.2%.
The corresponding values for `ON=C1CN2CCC1CC2` [compound 416, quinuclidin‐3‐one oxime hydrochloride] are 107 ± 9.6% and 109%.
As to `Nc1cccc(OC(F)(F)F)c1` [compound 419, 3‐(trifluoromethoxy)aniline], the results for the viability at 500 µM in assay [1] and in assay [2] were 105 ± 11.1% and 85%, respectively.
For `O=C1N[C@@H](Cc2ccccc2)CO1` [compound 421, (S)‐4‐BENZYL‐2‐OXAZOLIDINONE] the same measures were 86 ± 5.1% and 80.2%.
The corresponding values for `COC(=O)C1Cc2ccccc2N1` (centres unmarked) [compound 422, methyl 2‐indolinecarboxylate] are 11.1 ± 5.7% and 40.1%.
